Test results reported in EP3928779A1 (Chugai Seiyaku Kabushiki Kaisha, priority 2014, dated 2016).

test system: rat small-intestinal brush border membrane vesicles; test: Inhibitory effect on 33PO4 uptake into rat small-intestinal brush border membrane vesicles (rapid filtration method); format: biochemical; conditions: 33PO4 uptake into rat small-intestinal BBMVs; test compound 1 µM; reacted for 60 seconds
Method in brief: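 Uptake of ^33PO4 was measured by rapid filtration and liquid scintillation counting of filter-retained vesicles, after quenching with ice-cold 110 mM NaCl/1 mM KH2PO4/10 mM HEPES pH 7.5. Vesicles were brush border membranes from the upper small intestine of female Wistar rats aged 4–5 weeks.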

Compound | Rate of uptake inhibition (%) (1 µM)
COCCN(C)CCOCCOCCOCCOCCOc1ccc(CN2C(=O)C(C(=O)Nc3ccc(C(F)(F)F)cc3-c3cc(C(F)(F)F)ncn3)=C(O)C3(CCCC3)N2C)c(F)c1F [Example 432] | 11%
C[C@]12CCCN1N(Cc1cccc(F)c1F)C(=O)C(C(=O)Nc1ccc(Br)cc1-c1cc(C(F)(F)F)ncn1)=C2O [Example 64] | 77%
COc1cccc(-c2cc(C(F)(F)F)ccc2NC(=O)C2=C(O)[C@@]3(C)CCCN3N(Cc3ccc(OCc4ccncc4)c(F)c3F)C2=O)c1OC [Example 151] | 92%
COc1cccc(-c2cc(C(F)(F)F)ccc2NC(=O)C2=C(O)[C@@]3(C)CCCN3N(Cc3ccc(OC4CCOCC4)c(F)c3F)C2=O)c1OC [Example 158] | 84%
CN1N(Cc2ccc(NCCN3CCOCC3)c(F)c2F)C(=O)C(C(=O)Nc2ccc(C(F)(F)F)cc2-c2cc(C(F)(F)F)ncn2)=C(O)C12CCCC2 [Example 447] | 50%
COCCN1CC[C@@H](Oc2ccc(CN3C(=O)C(C(=O)Nc4ccc(C(F)(F)F)cc4-c4cc(C(F)(F)F)ncn4)=C(O)C4(CCC4)N3C)c(F)c2F)C1 [Example 405, 6-[[2,3-Difluoro-4-[(3R)-1-(2-methoxyethyl)pyrrolidin-3-yl]oxyphenyl]methyl]-9-hydroxy-5-methyl-7-oxo-N-[4-(trifluoromethyl)-2-[6-(trifluoromethyl)pyrimidin-4-yl]phenyl]-5,6-diazaspiro[3.5]non-8-ene-8-carboxamide] | 30%
Cc1c(C#N)ncnc1-c1cc(C(F)(F)F)ccc1NC(=O)C1=C(O)[C@@]2(C)CCCN2N(Cc2cccc(F)c2F)C1=O [Example 24] | 76%
C[C@]12CCCN1N(Cc1cccc(F)c1F)C(=O)C(C(=O)Nc1cc(F)c(Br)c(F)c1)=C2O [Example 29] | 75%
(4aS)-1-[(3-Fluorophenyl)methyl]-4-hydroxy-4a-methyl-N-[5-methyl-2-(trifluoromethyl)furan-3-yl]-2-oxo-6,7-dihydro-5H-pyrrolo[1,2-b]pyridazine-3-carboxamide [Example 8] | 37%
CN1N(Cc2ccc(OCCCC(=O)O)c(F)c2F)C(=O)C(C(=O)Nc2ccc(C(F)(F)F)cc2-c2cc(C(F)(F)F)ncn2)=C(O)C12CCCC2 [Example 332, 4-[2,3-Difluoro-4-[[10-hydroxy-6-methyl-8-oxo-9-[[4-(trifluoromethyl)-2-[6-(trifluoromethyl)pyrimidin-4-yl]phenyl]carbamoyl]-6,7-diazaspiro[4.5]dec-9-en-7-yl]methyl]phenoxy]butanoate] | 3%
C[C@@]12CCCN1N(Cc1ccc(OCCN3CCOCC3)c(F)c1F)C(=O)C(C(=O)Nc1ccc(C(F)(F)F)cc1-c1cc(C(F)(F)F)ncn1)=C2O.Cl [Example 108] | 54%
CN(C)C(=O)N1CCN(CCOc2ccc(CN3C(=O)C(C(=O)Nc4ccc(C(F)(F)F)cc4-c4cc(C(F)(F)F)ncn4)=C(O)C4(CCC4)N3C)c(F)c2F)CC1 [Example 364] | 36%
CN1[C@@H](C(C)(C)C)C(O)=C(C(=O)Nc2cc(F)c(Br)c(F)c2)C(=O)N1Cc1cccc(F)c1F [Example 240] | 72%
C[C@]12CCCN1N(Cc1cccc(F)c1F)C(=O)C(C(=O)Nc1ccc(Cl)cc1-c1ccc(C(F)(F)F)nc1)=C2O [Example 86] | 83%
C[C@]12CCCN1N(Cc1c(F)cccc1F)C(=O)C(C(=O)Nc1ccc(C(F)(F)F)cc1-c1cc(C(F)(F)F)ncn1)=C2O [Example 212] | 98%
COc1cccc(-c2cc(C(F)(F)F)ccc2NC(=O)C2=C(O)[C@@]3(C)CCCN3N(Cc3ccc(C#CCCCCO)c(F)c3F)C2=O)c1OC [Example 135] | 90%
Cc1nc(NC(=O)C2=C(O)C3(CCCC3)N(C)N(Cc3cccc(F)c3F)C2=O)ccc1Br [Example 262] | 43%
CN1N(Cc2ccc(OCCCOC[C@H](O)CO)c(F)c2F)C(=O)C(C(=O)Nc2ccc(C(F)(F)F)cc2-c2ccc(C(F)(F)F)nc2)=C(O)C12CCC2 [Example 383] | 26%
COCC(C)(C)N(C)CCOc1ccc(CN2C(=O)C(C(=O)Nc3ccc(C(F)(F)F)cc3-c3cc(C(F)(F)F)ncn3)=C(O)C3(CCC3)N2C)c(F)c1F [Example 349] | 55%
CN1N(Cc2ccc(OCCCCCOC[C@H](O)CO)c(F)c2F)C(=O)C(C(=O)Nc2ccc(C(F)(F)F)cc2-c2ccc(C(F)(F)F)nc2)=C(O)C12CCCC2 [Example 388] | 15%

Compound | Rate of uptake inhibition (%) (1 µM)
CN1N(Cc2ccc(OCCN3CCC(N4CCOCC4)CC3)c(F)c2F)C(=O)C(C(=O)Nc2ccc(C(F)(F)F)cc2-c2cc(C(F)(F)F)ncn2)=C(O)C12CCCC2 [Example 374] | 42%
COc1cccc(-c2cc(C(F)(F)F)ccc2NC(=O)C2=C(O)[C@@]3(C)CCCN3N(Cc3ccc(C#CCOCCOCCOCCO)c(F)c3F)C2=O)c1OC [Example 136] | 80%
C[C@]12CCCN1N(Cc1ccccc1)C(=O)C(C(=O)Nc1ccc(C(F)(F)F)cc1-c1cc(C(F)(F)F)ncn1)=C2O [Example 188] | 93%
CN1N(Cc2ccc(OCCN3CCOCC3)c(F)c2F)C(=O)C(C(=O)Nc2ccc(Cl)cc2-c2cc(C(F)(F)F)ncn2)=C(O)C12CCCCC2 [Example 297] | 36%
Cc1cc(NC(=O)C2=C(O)[C@@H]3CCC(C)(C)N3N(Cc3cccc(F)c3)C2=O)c(C(F)(F)F)o1 [Example 4, (4aS)-1-[(3-Fluorophenyl)methyl]-4-hydroxy-7,7-dimethyl-N-[5-methyl-2-(trifluoromethyl)furan-3-yl]-2-oxo-5.6-dihydro-4aH-pyrrolo[1,2-b]pyridazine-3-carboxamide] | 32%
(4aR)-N-[2-(6-Cyano-5-methoxypyridin-1-yl)-4-(trifluoromethyl)phenyl]-1-[(2,3-difluorophenyl)methyl]-4-hydroxy-4a-methyl-2-oxo-6,7-dihydro-5H-pyrrolo[1,2-b] pyridazine-3-carboxamide [Example 114] | 86%
CC1(C)CC[C@]2(C)C(O)=C(C(=O)Nc3cc(C(F)(F)F)ccc3-c3ccc(C(F)(F)F)nc3)C(=O)N(Cc3cccc(F)c3F)N12 [Example 63] | 72%
Cc1c(C#N)ncnc1-c1cc(C(F)(F)F)ccc1NC(=O)C1=C(O)[C@@]2(C)CCCN2N(Cc2ccc(OCCN3CCOCC3)c(F)c2F)C1=O [Example 22, (4aR)-N-[2-(6-Cyano-5-methylpyrimidin-4-yl)-4-(trifluoromethyl)phenyl]-1-[[2,3-ditluoro-4-(2-morpholin-4-ylethoxy)phenyl]methyl]-4-hydroxy-4a-methyl-2-oxo-6,7-dihydro-5H-pyrrolo[1,2-b]pyridazine-3-carboxamide] | 50%
COC[C@@H]1CCCN1CCOc1ccc(CN2C(=O)C(C(=O)Nc3ccc(C(F)(F)F)cc3-c3cc(C(F)(F)F)ncn3)=C(O)C3(CCCC3)N2C)c(F)c1F [Example 375] | 31%
CN1CCC(Oc2ccc(CN3C(=O)C(C(=O)Nc4ccc(C(F)(F)F)cc4-c4cc(C(F)(F)F)ncn4)=C(O)C4(CCC4)N3C)c(F)c2F)CC1 [Example 411] | 32%
CC(CN1CCOCC1)Oc1ccc(CN2C(=O)C(C(=O)Nc3ccc(C(F)(F)F)cc3-c3cc(C(F)(F)F)ncn3)=C(O)C3(CCC3)N2C)c(F)c1F (stereo not drawn) [Example 408] | 47%
C[C@@]12CCCN1N(Cc1ccc(OCCN3CCOCC3)c(F)c1F)C(=O)C(C(=O)Nc1ccc(Cl)cc1-c1cc(C(F)(F)F)ncn1)=C2O.Cl [Example 107] | 54%
C[C@]12CCCN1N(Cc1ccc(F)cc1)C(=O)C(C(=O)Nc1ccc(C(F)(F)F)cc1-c1ccc(C(F)(F)F)nc1)=C2O [Example 199] | 79%
CN1N(Cc2ccc(OCCN3CCOC(=O)C3)c(F)c2F)C(=O)C(C(=O)Nc2ccc(C(F)(F)F)cc2-c2cc(C(F)(F)F)ncn2)=C(O)C12CCC2 [Example 337, 8-[[2,3-Difluoro-4-[2-(2-oxomorpholin-4-yl)ethoxy]phenyl]methyl]-5-hydroxy-9-methyl-7-oxo-N-[4-(trifluoromethyl)-2-[6-(trifluoromethyl)pyrimidin-4-yl]phenyl)-8.9-diazaspiro [3. 5]non-5-ene-6-carboxamide] | 47%
C[C@]12CCCN1N(Cc1cccc(F)c1F)C(=O)C(C(=O)Nc1ccc(C(F)(F)F)cc1-c1ccc(C(F)(F)F)nc1Br)=C2O [Example 85] | 71%
COc1cc(CN2C(=O)C(C(=O)Nc3ccc(C(F)(F)F)cc3-c3ccc(C(F)(F)F)nc3)=C(O)[C@@]3(C)CCCN23)cc(OC)c1 [Example 202] | 75%
CN1N(Cc2ccc(OCCn3cncn3)c(F)c2F)C(=O)C(C(=O)Nc2ccc(C(F)(F)F)cc2-c2cc(C(F)(F)F)ncn2)=C(O)C12CCC2 [Example 352] | 27%
CSc1cc(-c2cc(C(F)(F)F)ccc2NC(=O)C2=C(O)[C@@]3(C)CCCN3N(Cc3cccc(F)c3F)C2=O)cnc1C#N [Example 113, (4aR)-N-[2-(6-Cyano-5-methylsulfanylpyridin-3-yl)-4-(trifluoromethyl)phenyl]-1-[(2,3-difluorophenyl)methyl]-4-hydroxy-4a-methyl-2-oxo-6,7-dihydro-5H-pyrrolo[1,2-b]pyridazine-3-carboxamide] | 84%
CN1N(Cc2ccc(OC(C)(C)CN3CCOCC3)c(F)c2F)C(=O)C(C(=O)Nc2ccc(C(F)(F)F)cc2-c2cc(C(F)(F)F)ncn2)=C(O)C12CCC2 [Example 407, 6-[[2,3-Difluoro-4-(2-methyl-1-morpholin-4-ylpropan-2-yl)oxyphenyl]methyl]-9-hydroxy-5-methyl-7-oxo-N-[4-(trifluoromethyl)-2-[6-(trifluoromethyl)pyrimidin-4-yl]phenyl]-5,6-diazaspiro[3.5]non-8-ene-8-carboxamide] | 30%
